Experimental data reported in US9914731B2, “Pyrazolo[1,5-a]pyridine derivatives and methods of their use” (Ignyta, Inc., priority 2013, dated 2018).
Read-outs that look alike come from different tables or passages of the source.

Molecular target: recombinant human baculovirus-expressed cMET (Homo sapiens (Human), UniProt P08581)
Experiment: c-MET kinase assay (HTRF KinEASE)
Format: biochemical
Settings: read-out: c-MET IC50
[1] = average of two or more determinations

Q: With `O=C(Nc1ccc(Oc2cc(N3CCCCC3)cn3nccc23)c(F)c1)c1cccn(-c2ccc(F)cc2)c1=O` [Example 57, 1-(4-Fluoro-phenyl)-2-oxo-1,2-dihydro-pyridine-3-carboxylic acid[3-fluoro-4-(6-piperidin-1-yl-pyrazolo[1,5-a]pyridin-4-yloxy)-phenyl]-amide] as the molecule, how does the IC50 [1] read?
A: Its IC50 is under 10 nM.

Q: `CCOCCn1cc(C(=O)Nc2ccc(Oc3cc(N4CCOCC4)cn4nccc34)c(F)c2)c(=O)n(-c2ccc(F)cc2)c1=O` [Example 58, 1-(2-Ethoxy-ethyl)-3-(4-fluoro-phenyl)-2,4-dioxo-1,2,3,4-tetrahydro-pyrimidine-5-carboxylic acid [3-fluoro-4-(6-morpholin-4-yl-pyrazolo[1,5-a]pyridin-4-yloxy)-phenyl]-amide] was tested. Which IC50 [1] did it give?
A: The IC50 was 10 to 100 nM.

Q: For `Cc1ccc(C(=O)Nc2ccc(Oc3cc(N4CCOCC4)cn4nccc34)c(F)c2)c(=O)n1-c1ccc(F)cc1` [Example 60, 1-(4-Fluoro-phenyl)-6-methyl-2-oxo-1,2-dihydro-pyridine-3-carboxylic acid [3-fluoro-4-(6-morpholin-4-yl-pyrazolo[1,5-a]pyridin-4-yloxy)-phenyl]-amide], which IC50 [1] is on record?
A: Its IC50 is under 10 nM.

Q: How did the IC50 [1] turn out when `CCn1cc(C(=O)Nc2ccc(Oc3cc(N4CCOCC4)cn4nccc34)c(F)c2)c(=O)n(-c2ccc(F)cc2)c1=O` [Example 61, 1-Ethyl-3-(4-fluoro-phenyl)-2,4-dioxo-1,2,3,4-tetrahydro-pyrimidine-5-carboxylic acid[3-fluoro-4-(6-morpholin-4-yl-pyrazolo[1,5-a]pyridin-4-yloxy)-phenyl]-amide] was run?
A: The IC50 was under 10 nM.

Q: How did the IC50 [1] turn out when `O=C(Nc1ccc(F)cc1)C1(C(=O)Nc2ccc(Oc3cc(N4CCOCC4)cn4nccc34)c(F)c2)CC1` [Example 63, Cyclopropane-1,1-dicarboxylic acid[3-fluoro-4-(6-morpholin-4-yl-pyrazolo[1,5-a]pyridin-4-yloxy)-phenyl]-amide(4-fluoro-phenyl)-amide] was run?
A: Its IC50 is 10 to 100 nM.

Q: For `CCOc1ccn(-c2ccc(F)cc2)c(=O)c1C(=O)Nc1ccc(Oc2cc(N3CCOCC3)cn3nccc23)c(F)c1` [Example 66, 4-Ethoxy-1-(4-fluoro-phenyl)-2-oxo-1,2-dihydro-pyridine-3-carboxylic acid [3-fluoro-4-(6-morpholin-4-yl-pyrazolo[1,5-a]pyridin-4-yloxy)-phenyl]-amide], which IC50 is on record?
A: The IC50 was under 10 nM.

Q: With `O=C(Nc1ccc(Oc2cc(N3CCC4(CC3)OCCO4)cn3nccc23)c(F)c1)c1cccn(-c2ccc(F)cc2)c1=O` [Example 67, 1-4-(Fluoro-phenyl)-2-oxo-1,2-dihydro-pyridine-3-carboxylic acid{4-[6-(1,4-dioxa-8-aza-spiro[4,5]dec-8-yl)-pyrazolo[1,5-a]pyridin-4-yloxy]-3-fluoro-phenyl}-amide] as the molecule, how does the IC50 [1] read?
A: Its IC50 is 10 to 100 nM.

Q: `CC(C)n1cc(C(=O)Nc2ccc(Oc3cc(N4CCC(F)(F)CC4)cn4nccc34)c(F)c2)c(=O)n(-c2ccc(F)cc2)c1=O` [Example 69, 3-(4-Fluoro-phenyl)-1-isopropyl-2,4-dioxo-1,2,3,4-tetrahydro-pyrimidine-5-carboxylic acid{4-[6-(4,4-difluoro-piperidin-1-yl)-pyrazolo[1,5-a]pyridin-4-yloxy]-3-fluoro-phenyl}-amide] was tested. Which IC50 [1] did it give?
A: Its IC50 is 10 to 100 nM.

Q: With `CCn1cc(C(=O)Nc2ccc(Oc3cc(N4CCC(F)(F)C4)cn4nccc34)c(F)c2)c(=O)n(-c2ccc(F)cc2)c1=O` [Example 70, 1-Ethyl-3-(4-fluoro-phenyl)-2,4-dioxo-1,2,3,4-tetrahydro-pyrimidine-5-carboxylic acid{4-[6-(3,3-difluoro-pyrrolidin-1-yl)-pyrazolo[1,5-a]pyridin-4-yloxy]-3-fluoro-phenyl}-amide] as the molecule, how does the IC50 [1] read?
A: The IC50 was 10 to 100 nM.

Q: Which IC50 [1] does the source give for `CC(C)n1cc(C(=O)Nc2ccc(Oc3cc(N4CCC(F)(F)C4)cn4nccc34)c(F)c2)c(=O)n(-c2ccc(F)cc2)c1=O` [Example 71, 3-(4-Fluoro-phenyl)-1-isopropyl-2,4-dioxo-1,2,3,4-tetrahydro-pyrimidine-5-carboxylic acid{4-[6-(3,3-difluoro-pyrrolidin-1-yl)-pyrazolo[1,5-a]pyridin-4-yloxy]-3-fluoro-phenyl}-amide] here?
A: Its IC50 is 10 to 100 nM.

Q: `O=C(Nc1ccc(Oc2cc(N3CCS(=O)(=O)CC3)cn3nccc23)c(F)c1)c1cccn(-c2ccc(F)cc2)c1=O` [Example 72, 1-(4-Fluoro-phenyl)-2-oxo-1,2-dihydro-pyridine-3-carboxylic acid{4-[6-(1,1-dioxo-thiomorpholin-4-yl)-pyrazolo[1,5-a]pyridin-4-yloxy]-3-fluoro-phenyl}-amide] was tested. Which IC50 [1] did it give?
A: Its IC50 is 10 to 100 nM.

Q: `CCn1cc(C(=O)Nc2ccc(Oc3cc(N4CCS(=O)(=O)CC4)cn4nccc34)c(F)c2)c(=O)n(-c2ccc(F)cc2)c1=O` [Example 73, 1-Ethyl-3-(4-fluoro-phenyl)-2,4-dioxo-1,2,3,4-tetrahydro-pyrimidine-5-carboxylic acid{4-[6-(1,1-dioxo-thiomorpholin-4-yl)-pyrazolo[1,5-a]pyridin-4-yloxy]-3-fluoro-phenyl}-amide] was tested. Which IC50 [1] did it give?
A: The IC50 was under 10 nM.

Q: For `CC(C)n1cc(C(=O)Nc2ccc(Oc3cc(N4CCS(=O)(=O)CC4)cn4nccc34)c(F)c2)c(=O)n(-c2ccc(F)cc2)c1=O` [Example 74, 3-(4-Fluoro-phenyl)-1-isopropyl-2,4-dioxo-1,2,3,4-tetrahydro-pyrimidine-5-carboxylic acid{4-[6-(1,1-dioxo-thiomorpholin-4-yl)-pyrazolo[1,5-a]pyridin-4-yloxy]-3-fluoro-phenyl}-amide], which IC50 [1] is on record?
A: Its IC50 is under 10 nM.

Q: With `O=C(Nc1ccc(Oc2cc(N3CCCC3)cn3nccc23)c(F)c1)c1cccn(-c2ccc(F)cc2)c1=O` [Example 75, 1-(4-Fluoro-phenyl)-2-oxo-1,2-dihydro-pyridine-3-carboxylic acid[3-fluoro-4-(6-pyrrolidin-1-yl-pyrazolo[1,5-a]pyridin-4-yloxy)-phenyl]-amide] as the molecule, how does the IC50 [1] read?
A: Its IC50 is under 10 nM.

Q: How did the IC50 [1] turn out when `O=C(Nc1ccc(Oc2cc(N3CCCC3=O)cn3nccc23)c(F)c1)c1cccn(-c2ccc(F)cc2)c1=O` [Example 76, 1-(4-Fluoro-phenyl)-2-oxo-1,2-dihydro-pyridine-3-carboxylic acid{3-fluoro-4-[6-(2-oxo-pyrrolidin-1-yl)-pyrazolo[1,5-a]pyridin-4-yloxy]-phenyl}-amide] was run?
A: The IC50 was under 10 nM.

Q: For `CC(C)n1cc(C(=O)Nc2ccc(Oc3cc(N4CCCC4=O)cn4nccc34)c(F)c2)c(=O)n(-c2ccc(F)cc2)c1=O` [Example 78, 3-(4-Fluoro-phenyl)-1-isopropyl-2,4-dioxo-1,2,3,4-tetrahydro-pyrimidine-5-carboxylic acid {3-fluoro-4-[6-(2-oxo-pyrrolidin-1-yl)-pyrazolo[1,5-a]pyridin-4-yloxy]-phenyl}-amide], which IC50 [1] is on record?
A: Its IC50 is under 10 nM.

Q: With `O=C(Nc1ccc(Oc2cc(Nc3ccccc3)cn3nccc23)c(F)c1)c1cccn(-c2ccc(F)cc2)c1=O` [Example 80, 1-(4-Fluoro-phenyl)-2-oxo-1,2-dihydro-pyridine-3-carboxylic acid[3-fluoro-4-(6-phenylamino-pyrazolo[1,5-a]pyridin-4-yloxy)-phenyl]-amide] as the molecule, how does the IC50 [1] read?
A: The IC50 was under 10 nM.

Q: `O=C(Nc1ccc(Oc2cc(Nc3ccccn3)cn3nccc23)c(F)c1)c1cccn(-c2ccc(F)cc2)c1=O` [Example 81, 1-(4-Fluoro-phenyl)-2-oxo-1,2-dihydro-pyridine-3-carboxylic acid{3-fluoro-4-[6-(pyridin-2-ylamino)-pyrazolo[1,5-a]pyridin-4-yloxy]-phenyl}-amide] was tested. Which IC50 [1] did it give?
A: The IC50 was under 10 nM.

Q: With `Cc1c(Nc2cc(Oc3ccc(NC(=O)c4cccn(-c5ccc(F)cc5)c4=O)cc3F)c3ccnn3c2)cnn1C` [Example 82, 1-(4-Fluoro-phenyl)-2-oxo-1,2-dihydro-pyridine-3-carboxylic acid{4-[6-(1,5-dimethyl-1H-pyrazol-4-ylamino)-pyrazolo[1,5-a]pyridin-4-yloxy]-3-fluoro-phenyl}-amide] as the molecule, how does the IC50 [1] read?
A: Its IC50 is under 10 nM.

Q: Which IC50 [1] does the source give for `Cc1ccc(C(=O)Nc2ccc(Oc3cc(Nc4ccc(F)cn4)cn4nccc34)c(F)c2)c(=O)n1-c1ccc(F)cc1` [Example 83, 1-(4-Fluoro-phenyl)-6-methyl-2-oxo-1,2-dihydro-pyridine-3-carboxylic acid {3-fluoro-4-[6-(5-fluoro-pyridin-2-ylamino)-pyrazolo[1,5-a]pyridin-4-yloxy]-phenyl}-amide] here?
A: The IC50 was under 10 nM.

Q: `CCn1cc(C(=O)Nc2ccc(Oc3cc(Nc4ncccn4)cn4nccc34)c(F)c2)c(=O)n(-c2ccc(F)cc2)c1=O` [Example 84, 1-Ethyl-3-(4-fluoro-phenyl)-2,4-dioxo-1,2,3,4-tetrahydro-pyrimidine-5-carboxylic acid{3-fluoro-4-[6-(pyrimidin-2-ylamino)-pyrazolo[1,5-a]pyridin-4-yloxy]-phenyl}-amide] was tested. Which IC50 [1] did it give?
A: Its IC50 is 10 to 100 nM.

Q: Which IC50 [1] does the source give for `CC(C)n1cc(C(=O)Nc2ccc(Oc3cc(Nc4ncccn4)cn4nccc34)c(F)c2)c(=O)n(-c2ccc(F)cc2)c1=O` [Example 85, 3-(4-Fluoro-phenyl)-1-isopropyl-2,4-dioxo-1,2,3,4-tetrahydro-pyrimidine-5-carboxylic acid{3-fluoro-4-[6-(pyrimidin-2-ylamino)-pyrazolo[1,5-a]pyridin-4-yloxy]-phenyl}-amide] here?
A: Its IC50 is under 10 nM.

Q: `CCn1cc(C(=O)Nc2ccc(Oc3cc(Nc4ccccn4)cn4nccc34)c(F)c2)c(=O)n(-c2ccc(F)cc2)c1=O` [Example 86, 1-Ethyl-3-(4-fluoro-phenyl)-2,4-dioxo-1,2,3,4-tetrahydro-pyrimidine-5-carboxylic acid{3-fluoro-4-[6-(pyridin-2-ylamino)-pyrazolo[1,5-a]pyridin-4-yloxy]-phenyl}-amide] was tested. Which IC50 [1] did it give?
A: The IC50 was 10 to 100 nM.

Q: `CC(C)n1cc(C(=O)Nc2ccc(Oc3cc(Nc4ccccn4)cn4nccc34)c(F)c2)c(=O)n(-c2ccc(F)cc2)c1=O` [Example 87, 3-(4-Fluoro-phenyl)-1-isopropyl-2,4-dioxo-1,2,3,4-tetrahydro-pyrimidine-5-carboxylic acid{3-fluoro-4-[6-(pyridin-2-ylamino)-pyrazolo[1,5-a]pyridin-4-yloxy]-phenyl}-amide] was tested. Which IC50 [1] did it give?
A: Its IC50 is 10 to 100 nM.

Q: Which IC50 [1] does the source give for `Cn1cc(-c2cc(Oc3ccc(NC(=O)c4cccn(-c5ccc(F)cc5)c4=O)cn3)c3ccnn3c2)cn1` [Example 89, 1-(4-Fluoro-phenyl)-2-oxo-1,2-dihydro-pyridine-3-carboxylic acid{6-[6-(1-methyl-1H-pyrazol-4-yl)-pyrazolo[1,5-a]pyridin-4-yloxy]-pyridin-3-yl}-amide] here?
A: The IC50 was under 10 nM.
